Data reported in patent EP3959993B1, “METHOD FOR SOLVENT FREE PRODUCTION OF AROMA CONCENTRATES” (Symrise AG, priority 2020, dated 2022).

Experiments:
[1] = Second oil phase obtained by adding NaCl to the water phase (Example 4); type: physicochemical; details: after separating oil phases I and II
Experimental: Cross linked polystyrene was used as adsorbent material. The volume flux for loading the adsorbent was 300 ml/min.
The adsorbent was heated to 150 °C, the temperature of the applied water steam was 160 °C.
The water steam flux was 10 g/min and was applied for 100 min.
The oil and water phases were separated.
A second oil phase was separated and was collected.

[2] = Influence of the amount of NaCl on the distribution between oil phase and water phase (Example 5); type: physicochemical

Row | SMILES | Loss in the water phase [1] | Distribution in [%] between oil phase and water phase after condensation: Oil phase ([2]; NaCl 0%) | Distribution in [%] between oil phase and water phase after condensation: Water phase ([2]; NaCl 0%) | Distribution in [%] between oil phase and water phase after condensation: Oil phase ([2]; NaCl 27.8 %) | Distribution in [%] between oil phase and water phase after condensation: Water phase ([2]; NaCl 27.8 %) | Distribution in [%] between oil phase and water phase after condensation: Oil phase ([2]; NaCl 41.67%) | Distribution in [%] between oil phase and water phase after condensation: Water phase ([2]; NaCl 41.67%) | Distribution in [%] between oil phase and water phase after condensation: Oil phase ([2]; NaCl 55.56 %) | Distribution in [%] between oil phase and water phase after condensation: Water phase ([2]; NaCl 55.56 %) | Distribution in [%] between oil phase and water phase after condensation: Oil phase ([2]; NaCl 69.44 %) | Distribution in [%] between oil phase and water phase after condensation: Water phase ([2]; NaCl 69.44 %) | Distribution in [%] between oil phase and water phase after condensation: Oil phase ([2]; NaCl 83.33 %) | Distribution in [%] between oil phase and water phase after condensation: Water phase ([2]; NaCl 83.33 %)
1 | CCOC(=O)C(C)CC (stereo not drawn) [ethyl 2-methyl butyrate] | 0,0% | 66.1% | 33.9% | 95% | 5% | 97.9% | 2.1% | 98.8% | 1.2% | 99.7% | 0.3% | 100% | 0%
2 | CCOC(C)=O [ethyl acetate] | 54,8% | 10.4% | 89.6% | 20.8% | 79.2% | 30.3% | 69.7% | 33.2% | 66.8% | 38.9% | 61.1% | 45.2% | 54.8%
3 | CCCC(=O)OCC [ethyl butyrate] | 1,3% | 49.4% | 50.6% | 85.1% | 14.9% | 92.9% | 7.1% | 95.4% | 4.6% | 97.7% | 2.3% | 98.7% | 1.3%
4 | CCCCCCCO [heptanol] | 0,0% | 76.2% | 23.8% | 100% | 0% | 100% | 0% | 100% | 0% | 100% | 0% | 100% | 0%
5 | CCCCCC=O [hexanal] | 0,0% | 100% | 0% | 100% | 0% | 100% | 0% | 100% | 0% | 100% | 0% | 100% | 0%
6 | CCCCCCO [hexanol] | 1,8% | 59.2% | 40.8% | 89.6% | 10.4% | 93.8% | 6.2% | 96.2% | 3.8% | 97.5% | 2.5% | 98.2% | 1.8%
7 | CCCCCCOC(C)=O [hexyl acetate] | 0,0% | 93.4% | 6.6% | 99.4% | 0.6% | 100% | 0% | 100% | 0% | 100% | 0% | 100% | 0%
8 | CCCCCCCCO [octanol] | 0,0% | 91.3% | 8.7% | 100% | 0% | 100% | 0% | 100% | 0% | 100% | 0% | 100% | 0%
9 | CCCCCO [pentanol] | 15,4% | 29.5% | 70.5% | 56.8% | 43.2% | 67.2% | 32.8% | 73.8% | 26.2% | 79.8% | 20.2% | 84.6% | 15.4%
